# US11926619B2, “Certain pladienolide compounds and methods of use” (EISAI R&D MANAGEMENT CO., LTD., priority 2018, dated 2024)
# Experiments:
# [1] = test system: WiDr cells (colon cancer cells; wildtype SF3B1); test: Cell viability assay (CellTiter-Glo, 72 hr), WiDr cells; assay type: cell-based; conditions: Homo sapiens; WiDr cells (wildtype SF3B1); read-out: WiDr GI50
# Summary of the method: (§1)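 Cells at 2000/well were exposed to 9 compound concentrations (0.1% DMSO) in duplicate or triplicate for 72 hr at 37 °C. ATP was read by CellTiter-Glo against a time-zero plate and DMSO control growth. Percent growth/viability was plotted against concentration to give Emax; negative values indicate lethality.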
# [2] = test system: WiDr-R cells (colon cancer cells; chemically-induced SF3B1 R1074H mutant); test: Cell viability assay (CellTiter-Glo, 72 hr), resistant WiDr-R cells (counter-screen); assay type: cell-based; conditions: WiDr-R cells (SF3B1 R1074H mutation, resistant); read-out: WiDr-R GI50
# Summary of the method: as §1
# [3] = test system: Panc 05.04 cells (pancreatic cancer cells; Q699H and K700E mutations in SF3B1); test: Cell viability assay (CellTiter-Glo, 72 hr), Panc 05.04 cells; assay type: cell-based; conditions: Panc 05.04 cells (mutant SF3B1); for Emax: maximum achievable response in tested dose range, negative value = cellular lethality, read-out: Panc 05.04 (mt SF3B1 cells) Emax (%); for GI50: read-out: Panc 05.04 (mt SF3B1 cells), GI50
# Summary of the method: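 Panc 05.04 cells treated 72 hr at 37 °C with 9 compound concentrations (0.1% DMSO), duplicate or triplicate. ATP read by CellTiter-Glo; growth inhibition/viability calculated against a time-zero plate and DMSO control growth. Emax is the maximal response over the tested range, negative values meaning lethality.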
# SF3b complexes = target: T1, SF3b complexes (Homo sapiens, UniProt O75533+Q7RTV0); test: Scintillation proximity assay (SPA) with [3H]-labelled pladienolide probe; assay type: binding; conditions: wt SF3B1, read-out: SPA (wt SF3B1 cells) IC50
# T1 construct: endogenous in cells
# Summary of the method: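 SF3b complexes immunoprecipitated from nuclear extracts with anti-SF3B1 antibody on anti-mouse PVT SPA beads. Beads pre-incubated 30 min with varying PB or PB-OH, then 2.5 nM [3H]-PB added for 30 min; scintillation signal read and fit by non-linear regression.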
smiles,measurement,setting,value
C/C(=C\C=C\[C@@H](C)COC(=O)N1CCC[C@H]1CF)[C@H]1OC(=O)C[C@H](O)CC[C@@](C)(O)[C@@H](OC(=O)N2CCN(C3CCCCCC3)CC2)/C=C/[C@@H]1C,GI50,[1],1.24 nM
same,GI50,[2],> 1000 nM
same,Emax,[3],-72.7%
same,GI50,[3],1.75 nM
same,IC50,SF3b complexes,4.23 nM
C/C(=C\C=C\[C@@H](C)c1ccccn1)[C@H]1OC(=O)C[C@H](O)CC[C@@](C)(O)[C@@H](OC(=O)N2CCN(C3CCCC3)CC2)/C=C/[C@@H]1C,GI50,[1],19.6 nM
same,GI50,[2],> 1000 nM
same,Emax,[3],-89.5%
same,GI50,[3],27.9 nM
same,IC50,SF3b complexes,8.76 nM
C/C(=C\C=C\[C@@H](C)COC(=O)N1CCC[C@H]1C(=O)O)[C@H]1OC(=O)C[C@H](O)CC[C@@](C)(O)[C@@H](OC(=O)N2CCN(C3CCCCCC3)CC2)/C=C/[C@@H]1C,GI50,[1],> 1000 nM
same,GI50,[2],> 1000 nM
same,Emax,[3],35%
same,GI50,[3],2640 nM
same,IC50,SF3b complexes,36.1 nM
C/C(=C\C=C\[C@@H](C)c1ccccn1)[C@H]1OC(=O)C[C@H](O)CC[C@@](C)(O)[C@@H](OC(=O)N2CC3(C2)CN(C2CCCCCC2)C3)/C=C/[C@@H]1C,GI50,[1],130 nM
same,GI50,[2],> 1000 nM
same,Emax,[3],-41.9%
same,GI50,[3],115 nM
same,IC50,SF3b complexes,71.3 nM
CC(=O)O[C@H]1/C=C/[C@H](C)[C@@H](/C(C)=C/C=C/[C@@H](C)COC(=O)N2CCC[C@@H]2CO)OC(=O)C[C@H](O)CC[C@@]1(C)O,GI50,[1],24.7 nM
same,GI50,[2],> 10000 nM
same,Emax,[3],-83.4%
same,GI50,[3],35.1 nM
same,IC50,SF3b complexes,80.4 nM
C/C(=C\C=C\[C@@H](C)Cn1cc(C2CC2)nn1)[C@H]1OC(=O)C[C@H](O)CC[C@@](C)(O)[C@@H](OC(=O)N2CCN(C3CCCCCC3)CC2)/C=C/[C@@H]1C,GI50,[1],51.8 nM
same,GI50,[2],> 1000 nM
same,Emax,[3],-94.5%
same,GI50,[3],38.6 nM
same,IC50,SF3b complexes,14.1 nM
C/C(=C\C=C\[C@@H](C)CNC(=O)N1CCCC1)[C@H]1OC(=O)C[C@H](O)CC[C@@](C)(O)[C@@H](OC(=O)N2CCN(C3CCCCCC3)CC2)/C=C/[C@@H]1C,GI50,[1],27.6 nM
same,GI50,[2],> 1000 nM
same,Emax,[3],-90.9%
same,GI50,[3],19.8 nM
same,IC50,SF3b complexes,5.24 nM
CC(=O)O[C@H]1/C=C/[C@H](C)[C@@H](/C(C)=C/C=C/[C@@H](C)COC(=O)N2CCC[C@@H]2C)OC(=O)C[C@H](O)CC[C@@]1(C)O,GI50,[1],38.1 nM
same,GI50,[2],> 10000 nM
same,Emax,[3],-90%
same,GI50,[3],52.6 nM
same,IC50,SF3b complexes,27.3 nM
C/C(=C\C=C\[C@@H](C)c1ccccn1)[C@H]1OC(=O)C[C@H](O)CC[C@@](C)(O)[C@@H](OC(=O)N2CCN(C(C)(C)C)CC2)/C=C/[C@@H]1C,GI50,[1],76 nM
same,GI50,[2],> 1000 nM
same,Emax,[3],-78.1%
same,GI50,[3],66 nM
same,IC50,SF3b complexes,13.1 nM
C/C(=C\C=C\[C@@H](C)c1ccccn1)[C@H]1OC(=O)C[C@H](O)CC[C@@](C)(O)[C@@H](OC(=O)N2CCN(C3CCC3)CC2)/C=C/[C@@H]1C,GI50,[1],36.7 nM
same,GI50,[2],> 1000 nM
same,Emax,[3],-83.6%
same,GI50,[3],38.9 nM
same,IC50,SF3b complexes,7.23 nM
CC(=O)O[C@H]1/C=C/[C@H](C)[C@@H](/C(C)=C/C=C/Cc2ccccn2)OC(=O)C[C@H](O)CC[C@@]1(C)O,GI50,[1],559 nM
same,GI50,[2],> 10000 nM
same,Emax,[3],87.2%
same,GI50,[3],> 10000 nM
same,IC50,SF3b complexes,> 1200 nM
C/C(=C\C=C\[C@@H](C)COC(=O)N1CC[C@@H](C(=O)O)C1)[C@H]1OC(=O)C[C@H](O)CC[C@@](C)(O)[C@@H](OC(=O)N2CCN(C3CCCCCC3)CC2)/C=C/[C@@H]1C,GI50,[1],692 nM
same,GI50,[2],> 1000 nM
same,Emax,[3],-58.3%
same,GI50,[3],108 nM
same,IC50,SF3b complexes,2.25 nM
C/C(=C\C=C\[C@@H](C)c1ccccn1)[C@H]1OC(=O)C[C@H](O)CC[C@H](C)[C@@H](OC(=O)N(C)C)/C=C/[C@@H]1C,GI50,[1],479 nM
same,GI50,[2],> 10000 nM
same,Emax,[3],24%
same,GI50,[3],1720 nM
same,IC50,SF3b complexes,142 nM
C/C(=C\C=C\[C@H](C)c1ccccn1)[C@H]1OC(=O)C[C@H](O)CC[C@@](C)(O)[C@@H](OC(=O)N2CCN(C)CC2)/C=C/[C@@H]1C,GI50,[1],34.3 nM
same,GI50,[2],> 1000 nM
same,Emax,[3],-49.2%
same,GI50,[3],53.6 nM
same,IC50,SF3b complexes,5.69 nM
C/C(=C\C=C\C(C)c1cc(C)ccn1)[C@H]1OC(=O)C[C@H](O)CC[C@@](C)(O)[C@@H](OC(=O)N2CCN(C3CCCCCC3)CC2)/C=C/[C@@H]1C (stereo partly shown),GI50,[1],58.7 nM
same,GI50,[2],> 1000 nM
same,Emax,[3],-92.4%
same,GI50,[3],59.9 nM
same,IC50,SF3b complexes,6.79 nM
CC(=O)O[C@H]1/C=C/[C@H](C)[C@@H](/C(C)=C/C=C/[C@@H](C)COC(=O)N2CCC[C@H]2C)OC(=O)C[C@H](O)CC[C@@]1(C)O,GI50,[1],0.983 nM
same,GI50,[2],> 1000 nM
same,Emax,[3],-79.3%
same,GI50,[3],2.11 nM
same,IC50,SF3b complexes,2.72 nM
C/C(=C\C=C\[C@@H](C)COC(=O)N1CC[C@H](F)C1)[C@H]1OC(=O)C[C@H](O)CC[C@@](C)(O)[C@@H](OC(=O)N2CCN(C3CCCCCC3)CC2)/C=C/[C@@H]1C,GI50,[1],4.3 nM
same,GI50,[2],> 1000 nM
same,Emax,[3],-79.4%
same,GI50,[3],1.76 nM
same,IC50,SF3b complexes,1.93 nM
C/C(=C\C=C\C(C)c1cnccn1)[C@H]1OC(=O)C[C@H](O)CC[C@@](C)(O)[C@@H](OC(=O)N2CCN(C3CCCCCC3)CC2)/C=C/[C@@H]1C (stereo partly shown),GI50,[1],31.9 nM
same,GI50,[2],> 10000 nM
same,Emax,[3],-93.7%
same,GI50,[3],22.1 nM
same,IC50,SF3b complexes,6.37 nM
C/C(=C\C=C\[C@@H](C)CCC(=O)N1CCCC1)[C@H]1OC(=O)C[C@H](O)CC[C@@](C)(O)[C@@H](OC(=O)N2CCN(C)CC2)/C=C/[C@@H]1C,GI50,[1],26.4 nM
same,GI50,[2],> 1000 nM
same,Emax,[3],-87.3%
same,GI50,[3],27.3 nM
same,IC50,SF3b complexes,4.36 nM
C/C(=C\C=C\[C@@H](C)c1ccccn1)[C@H]1OC(=O)C[C@H](O)CC[C@@](C)(O)[C@@H](OC(=O)N2CCCN(C)CC2)/C=C/[C@@H]1C,GI50,[1],33.1 nM
same,GI50,[2],> 1000 nM
same,Emax,[3],-23.1%
same,GI50,[3],84.9 nM
same,IC50,SF3b complexes,6.87 nM
C/C(=C\C=C\[C@H](C)c1ncccn1)[C@H]1OC(=O)C[C@H](O)CC[C@@](C)(O)[C@@H](OC(=O)N2CCN(C3CCCCCC3)CC2)/C=C/[C@@H]1C,GI50,[1],38.1 nM
same,GI50,[2],> 1000 nM
same,Emax,[3],-93.1%
same,GI50,[3],34.5 nM
same,IC50,SF3b complexes,6.57 nM
CC[C@H](OC(C)=O)[C@@H](C)[C@H]1O[C@@H]1C[C@@](C)(O)/C=C/C=C(\C)[C@H]1OC(=O)C[C@H](O)CC[C@@](C)(O)[C@@H](OC(=O)N2CCN(C3CCCCCC3)CC2)/C=C/[C@@H]1C,GI50,[1],2 nM
same,GI50,[2],132 nM
same,Emax,[3],-78.6%
same,GI50,[3],2.41 nM
same,IC50,SF3b complexes,5.85 nM
C/C(=C\C=C\C(C)c1cccnn1)[C@H]1OC(=O)C[C@H](O)CC[C@@](C)(O)[C@@H](OC(=O)N2CCN(C3CCCCCC3)CC2)/C=C/[C@@H]1C (stereo partly shown),GI50,[1],15.1 nM
same,GI50,[2],> 1000 nM
same,Emax,[3],-94.7%
same,GI50,[3],22 nM
same,IC50,SF3b complexes,3.38 nM
CC(=O)O[C@H]1/C=C/[C@H](C)[C@@H](/C(C)=C/C=C/[C@@H](C)COC(=O)N(C)C(C)C)OC(=O)C[C@H](O)CC[C@@]1(C)O,GI50,[1],32.6 nM
same,GI50,[2],> 10000 nM
same,Emax,[3],-87.4%
same,GI50,[3],54.6 nM
same,IC50,SF3b complexes,4.85 nM
C/C(=C\C=C\[C@@H](C)COC(=O)N1CCCC1)[C@H]1OC(=O)CCCCC[C@@H](OC(=O)N(C)C)/C=C/[C@@H]1C,GI50,[1],135 nM
same,GI50,[2],6380 nM
same,Emax,[3],-94.8%
same,GI50,[3],156 nM
same,IC50,SF3b complexes,71.1 nM
C/C(=C\C=C\C(C)c1ccncn1)[C@H]1OC(=O)C[C@H](O)CC[C@@](C)(O)[C@@H](OC(=O)N2CCN(C3CCCCCC3)CC2)/C=C/[C@@H]1C (stereo partly shown),GI50,[1],532 nM
same,GI50,[2],> 1000 nM
same,Emax,[3],-26.6%
same,GI50,[3],956 nM
same,IC50,SF3b complexes,504 nM
